Experimental data: patent US9322032B2, “Arabidopsis ring E3 ubiquitin ligase for promotion of plant germination” (INDUSTRY-ACADEMIC COOPERATION FOUNDATION, YONSEI UNIVERSITY, priority 2011, dated 2016)

T1: E3 ubiquitin ligase (Arabidopsis thaliana, UniProt Q9M022)
T1 construct: the ORF of the AtAIRP2 gene was subcloned into pMAL-X vector in-frame with MBP; made in house; host or cells: Escherichia coli BL21-CodonPlus (DE3) RIL
T1 sequence (Q9M022 1-242): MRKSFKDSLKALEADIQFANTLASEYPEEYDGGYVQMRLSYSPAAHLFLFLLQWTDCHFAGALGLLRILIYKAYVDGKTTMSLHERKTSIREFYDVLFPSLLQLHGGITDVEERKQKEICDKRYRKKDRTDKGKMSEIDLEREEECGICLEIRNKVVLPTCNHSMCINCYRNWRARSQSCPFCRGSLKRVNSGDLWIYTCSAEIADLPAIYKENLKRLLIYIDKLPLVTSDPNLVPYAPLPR

B1: AtAIRP2 protein: RING protein encoded by At5g01520 (SEQ ID NO:2), tested as maltose-binding protein fusion (protein)
chain: T1 sequence (Q9M022 1-242)
modifications: left off: large carriers

Columns and labels:
AtAIRP2 gene promoter = experiment: Histochemical GUS assay of AtAIRP2 promoter activity; type: in vivo, Arabidopsis thaliana; details: 100 μM ABA, 3 hours
Protocol: […] After removal of the acetone, the plant was washed 3 times with rincing solution containing 50 mM NaPO4, 1 mM K3Fe(CN)6, and 1 mM K4Fe(CN)6, and immersed in 2 mM X-Gluc (5-bromo-4-chloro-3-indolyl glucuronide, sigma) and vacuumed for 1 min. After staining at 37° C. in the dark until the color was changed, the plant was incubated in 90% ethanol to remove chlorophyll.
(§1) The AtAIRP2 gene expressions in various abiotic stresses were analyzed by RT-PCR. After treatments of low-temperature (12 hours and 24 hours), drought (1 hour and 2 hours), salt (1.5 hour and 3 hours) and ABA hormone (1.5 hour and 3 hours) stresses, RNA from each of samples was extracted to analyze the gene expression patterns. As a result, it was determined that the gene expression levels of stress treatments were increased than those of non-stress treatments, thereby the AtAIRP2 gene expression is induced by salt, low-temperature, drought and ABA hormone stresses (FIG. 1). In addition, the AtAIRP2 protein expressions in various abiotic stresses were analyzed by histochemical GUS assay. After treatments of ABA hormone (3 hours) and drought (2 hours) stresses, the degree of the staining was analyzed. As a result, it was determined that the degrees of the staining of stress treatments were increased than those of before the stress treatments (FIG. 2).

AtAIRP2 gene = AtAIRP2 gene expression by RT-PCR after stress treatment; type: in vivo, Arabidopsis thaliana; details: 100 μM ABA, 1.5 hour and 3 hours, 2-week-old wild type seedlings
Protocol: In order to determine expressions of the AtAIRP2 gene to drought stress, the wild type Arabidopsis thaliana seedlings which were grown on medium for 2 weeks were exposed in the air, and sampled after 1 hour and 2 hours. In order to determine expressions of the AtAIRP2 gene to salt stress, the wild type Arabidopsis thaliana seedlings which were grown on medium for 2 weeks were treated with 300 mM sodium chloride, and sampled after 1.5 hour and 3 hours. In order to determine expressions of the AtAIRP2 gene to low-temperature stress, the wild type Arabidopsis thaliana seedlings which were grown on medium for 2 weeks were incubated at 4° C. for 12 hours and 24 hours, and sampled. […]
as §1, with “After treatments of low-temperature (12 hours and 24 hours), drought (1 hour and 2 hours), salt (1.5 hour and 3 hours) and ABA hormone (1.5 hour and 3 hours) stresses, RNA from each of samples was extracted to analyze the gene expression patterns.” left out

E3 ubiquitin ligase = target: T1, E3 ubiquitin ligase; experiment: Self-ubiquitination assay (Western blot, anti-MBP and anti-ubiquitin); type: biochemical; details: with UBA1, UBC8, ubiquitin, 30° C., 1 hour
Protocol: For the enzymatic activity analysis of the AtAIRP2 protein, the ORF of the AtAIRP2 gene was subcloned into pMAL-X vector in-frame with MBP (maltose-binding protein). 40 mM Tris-HCI, pH 7.5, 5 mM MgCl2, 2 mM ATP, 2 mM dithiothreitol (DTT), 300 ng/μL ubiquitin (Sigma), 25 μM MG132 (A.G. Scientific Inc.), 500 ng UBA1 (ABRC, www.arabidopsis.org), 500 ng UBC8 (ABRC, www.arabidopsis.org) and 500 ng MBP-AtAIRP2 were added to each of tubes and incubated at 30° C. After addition of sample buffer solution, the resultant was heated at 100° C. for 5min, and performed by Western blot using anti-MBP (New England Bio Labs) and anti-ubiquitin (Santa Cruz) antibodies.
Maltose-binding protein (MBP) was bound to the AtAIRP2 proteins. Then, the MBP-AtAIRP2 was incubated with UBA1, UBC8, ubiquitin and AtAIRP2 at 30° C. for 1 hour to perform Self-Ubiquitination, and performed by Western blot using MBP- and ubiquitin-specific antibodies to analyze changes in the protein levels. As a result, it was determined that the molecular weight of the AtAIRP2 protein was increased through Western blot using anti-MBP antibody, and the increase was induced due to ubiquitin (FIG. 3).

| Molecule | GUS signals (AtAIRP2 promoter activity) (AtAIRP2 gene promoter) | AtAIRP2 gene expression (AtAIRP2 gene) | enzymatic activity of E3 ubiquitin ligase (E3 ubiquitin ligase) |
| --- | --- | --- | --- |
| CC1=CC(=O)CC(C)(C)C1(O)/C=C/C(C)=C\C(=O)O (stereo not drawn) [ABA] | markedly induced | induced |  |
| B1 |  |  | possessed ability for enzymatic activity of E3 ubiquitin ligase |
